{
  "source": "patent US20100160295A1",
  "about": "“TREATMENT OF RESTLESS LEG SYNDROME AND SLEEP DISORDERS” (SYNOSIA THERAPEUTICS, priority 2008, published 2010)",
  "test_system": "Subjects with RLS",
  "test": "Medical Outcomes Study (MOS) Sleep Scale, placebo-controlled study in RLS subjects",
  "format": "in vivo, human",
  "procedure": "The study multi-centre, randomized, double-blind, parallel-groups, placebo-controlled study with 2 treatment arms, oral HPPD inhibitor (2-(2-nitro-4-trifluoromethylbenzoyl)-1,3-cyclohexanedione) and placebo. Subjects were randomized to either treatment with an HPPD inhibitor or placebo in a 2:1 ratio. The subjects were dosed with 4 mg on day 1, and 2 mg/day on days 2-14. The total duration of treatment with study drug for each subject was 14 consecutive days ending at the day of the final sleep lab assessment (Day 14), with a follow-up examination 29 days after Baseline.\nEfficacy parameters were changes between Baseline and end of treatment in objective measures of Periodic Limb Movements (PLM) and sleep efficiency and in investigator evaluations of severity of RLS symptoms as well as in subject's report on severity of RLS symptoms, sleep disturbances and depressive feelings. Parameters measured included: • Periodic Limb Movement (PLM) Index, defined as the number of PLM events occurring during time-in-bed (PLMI/h TIB) • Periodic Limb Movements during Sleep Index, defined as the number of PLMs per hour of total sleep time (PLMSI/h TST) • PLM arousal index, defined as the number of PLM with arousals per hour of total sleep time (PLMSAI/h TST) • Periodic Limb Movements during wakefulness index, defined as the number of PLMs per hour occurring during wakefulness within time-in-bed (PLMWI/h TIB) • Sleep Efficiency (SE) expressed as the percentage total sleep time (TST) of total time in bed (TIB) • Total Sleep Time (TST) • Total number of arousals per TST • Sleep latency • Restless Legs Scale—6 items (RLS-6) (Kohnen et al, 2004) • IRLS total score change from start of treatment to end • Time to requiring rescue medication (defined as time to dropout due to the need of rescue medication for intolerable RLS symptoms) • Physicians' Global Impression, rated by the Clinical Global Impressions Scale (CGI): severity, change and treatment effect • CGI responders defined as the proportion of subjects who improved “much” or “very much” on CGI item “change”. • Patients' Global Impression (PGI) scale Item 1 (efficacy) • Medical Outcomes Study (MOS) Sleep Scale • Beck Depression Inventory (BDI) • In addition, a patient diary was to be completed between days 8 and 15 • HPPD inhibitor plasma concentrations at Baseline, end of treatment and follow-up • Tyrosine plasma concentration at Baseline, end of treatment and follow-up.\nSubjects with RLS received either placebo (7 subjects) or an HPPD inhibitor (13 subjects) given as 4 mg on day 1, then 2 mg per day for days 2-14 of the trial. Various parameters relevant to RLS were monitored during the course of treatment, in particular the quality of their sleep patterns using a standard assessment scale (Medical Outcomes Study (MOS) Sleep Scale). Individuals were asked to complete a standard evaluation of their ‘normal’ sleep experience at the start of the trial (Baseline) and again at the end of treatment (EoT), with the various parameters scored according to the attached document.\nThe MOS Sleep Scale is a comprehensive subject completed sleep questionnaire consisting of 12 items (Hays and Stewart, 1992; Hays et al., 2005). Each item measures a unique aspect or characteristic of sleep. Overall, the MOS Sleep Scale measures the following:\nAll items, except for item 2, were transformed in a ‘0-100’ scale.\nFor the analysis of the MOS sleep scale, the following subscales were determined as means of the involved items (in part, after reversing the ratings in the ‘0-100’ scale, denoted by (R) in the item sequence):\nSubjects self-reported the length of time it took for them to fall asleep and the average number of hours of sleep each night. Scores for all other items range from 1 (all of the time) to 6 (none of the time).\nThe MOS Sleep Scale was completed at Baseline (Visit 2) and final examination (Visit 3).",
  "key": {"[1]": {"details": "EoT Visit, M-ITT, none of the placebo patients"}, "[2]": {"details": "EoT, PPS n = 13, 4 mg day 1, 2 mg/day days 2-14"}, "[3]": {"details": "EoT, PPS n = 13, item 2 raw scores"}, "[4]": {"details": "M-ITT, HPPD inhibitor vs placebo"}, "[5]": {"details": "change from Baseline to EoT, PPS n = 13"}},
  "data": [
    {"compound": "O=C1CCCC(=O)C1C(=O)c1ccc(C(F)(F)F)cc1[N+](=O)[O-]", "note": "[HPPD Inhibitor, 2-(2-nitro-4-trifluoromethylbenzoyl)-1,3-cyclohexanedione]", "values": [
      {"measurement": "patients reporting optimal sleep (7-8 hours), number", "setting": "[1]", "result": 5, "unit": "patients"},
      {"measurement": "patients reporting optimal sleep (7-8 hours), percentage", "setting": "[1]", "result": 35.7, "unit": "%"},
      {"measurement": "patients reporting optimal sleep (7-8 hours), number", "setting": "EoT Visit, PPS", "result": 4, "unit": "patients"},
      {"measurement": "MOS Short of Breath Scale, absolute, Median", "setting": "EoT, PPS n = 13", "result": 0.0},
      {"measurement": "MOS Short of Breath Scale, absolute, Range", "setting": "EoT, PPS n = 13", "result": "0.0-40.0"},
      {"measurement": "MOS Sleep Adequacy Scale, absolute, Median", "setting": "EoT, PPS n = 13", "result": 50.0},
      {"measurement": "MOS Sleep Adequacy Scale, absolute, Range", "setting": "EoT, PPS n = 13", "result": "0.0-80.0"},
      {"measurement": "MOS Sleep Problems Index I, absolute, Median", "setting": "EoT, PPS n = 13", "result": 33.3},
      {"measurement": "MOS Sleep Problems Index I, absolute, Range", "setting": "EoT, PPS n = 13", "result": "10.0-70.0"},
      {"measurement": "MOS Sleep Problems Index II, absolute, Median", "setting": "EoT, PPS n = 13", "result": 32.8},
      {"measurement": "MOS Sleep Problems Index II, absolute, Range", "setting": "EoT, PPS n = 13", "result": "11.1-74.4"},
      {"measurement": "MOS Snoring Scale, absolute, Median", "setting": "EoT, PPS n = 13", "result": 20.0},
      {"measurement": "MOS Snoring Scale, absolute, Range", "setting": "EoT, PPS n = 13", "result": "0.0-40.0"},
      {"measurement": "MOS Somnolence Scale, absolute, Median", "setting": "EoT, PPS n = 13", "result": 13.3},
      {"measurement": "MOS Somnolence Scale, absolute, Range", "setting": "EoT, PPS n = 13", "result": "6.7-66.7"},
      {"measurement": "MOS Short of Breath Scale, absolute, M ± SD", "setting": "[2]", "result": "9.2 ± 15.5"},
      {"measurement": "MOS Sleep Disturbance Scale, absolute, Median", "setting": "[2]", "result": 43.8},
      {"measurement": "MOS Sleep Disturbance Scale, absolute, Range", "setting": "[2]", "result": "10.0-72.5"},
      {"measurement": "MOS Sleep Problems Index I, absolute, M ± SD", "setting": "[2]", "result": "36.7 ± 16.3"},
      {"measurement": "MOS Sleep Problems Index II, absolute, M ± SD", "setting": "[2]", "result": "37.9 ± 16.8"},
      {"measurement": "MOS Snoring Scale, absolute, M ± SD", "setting": "[2]", "result": "20.0 ± 16.3"},
      {"measurement": "MOS Somnolence Scale, absolute, M ± SD", "setting": "[2]", "result": "24.6 ± 19.7"},
      {"measurement": "MOS Sleep Disturbance Scale, absolute, M ± SD", "setting": "EoT, PPS n = 13, 4 mg day 1, 2 mg/day days 2-14, 0-100 scale, higher = stronger sleep problems", "result": "41.8 ± 16.7"},
      {"measurement": "MOS Sleep Adequacy Scale, absolute, M ± SD", "setting": "EoT, PPS n = 13, 4 mg day 1, 2 mg/day days 2-14, higher values = better", "result": "46.9 ± 25.9"},
      {"measurement": "MOS Sleep Quantity, absolute, Median", "setting": "[3]", "result": 6.0, "unit": "h"},
      {"measurement": "MOS Sleep Quantity, absolute, Range", "setting": "[3]", "result": "4.0 to 8.0", "unit": "h"},
      {"measurement": "MOS Sleep Quantity, absolute, M ± SD", "setting": "EoT, PPS n = 13, item 2 raw scores, 4 mg day 1, 2 mg/day days 2-14", "result": "6.1 ± 1.0", "unit": "h"},
      {"measurement": "MOS sleep adequacy: difference HPPD inhibitor—placebo, LS mean", "setting": "M-ITT, 95%-CI: 1.30, 52.64, p=0.0405 two-sided from ANCOVA", "result": 26.97},
      {"measurement": "MOS sleep disturbance: difference HPPD inhibitor—placebo, LS mean", "setting": "M-ITT, 95%-CI: −35.53, 0.93, p=0.0616 two-sided from ANCOVA", "result": "−17.30"},
      {"measurement": "MOS sleep problems index II: difference HPPD inhibitor—placebo, LS mean", "setting": "M-ITT, 95%-CI: −36.18, 2.61, p=0.0857 two-sided from ANCOVA", "result": "−16.78"},
      {"measurement": "MOS sleep problems index I: difference HPPD inhibitor—placebo, LS mean", "setting": "M-ITT, 95%-CI: −37.80, 0.31, p=0.0534 two-sided from ANCOVA", "result": "−18.75"},
      {"measurement": "MOS sleep adequacy: effect size d", "setting": "[4]", "result": 0.50},
      {"measurement": "MOS sleep disturbance: effect size d", "setting": "[4]", "result": 0.55},
      {"measurement": "MOS sleep problems index I: effect size d", "setting": "[4]", "result": 0.54},
      {"measurement": "MOS sleep problems index II: effect size d", "setting": "[4]", "result": 0.41},
      {"measurement": "MOS Short of Breath Scale, change, M ± SD", "setting": "[5]", "result": "−7.7 ± 19.2"},
      {"measurement": "MOS Short of Breath Scale, change, Median", "setting": "[5]", "result": 0.0},
      {"measurement": "MOS Short of Breath Scale, change, Range", "setting": "[5]", "result": "−40.0-20.0"},
      {"measurement": "MOS Sleep Adequacy Scale, change, M ± SD", "setting": "[5]", "result": "26.9 ± 35.5"},
      {"measurement": "MOS Sleep Adequacy Scale, change, Median", "setting": "[5]", "result": 30.0},
      {"measurement": "MOS Sleep Adequacy Scale, change, Range", "setting": "[5]", "result": "−50.0-80.0"},
      {"measurement": "MOS Sleep Disturbance Scale, change, M ± SD", "setting": "[5]", "result": "−35.0 ± 27.5"}
    ]}
  ]
}
